Structures can show the parent of a compound that is named as a salt. Where two headings read alike, the source gives them in different places.
Experiments:
whole complement = assay: In vivo complement inhibition in guinea pigs (whole complement of serum, capillary tube assay); set-up: species or system guinea pig; conditions: for change in vivo at 200 mg/kg: Cavia porcellus, ip
Source text: (§1) An active inhibitor protects C2 from C1 and C4; (ii) Test, Code 035 (C3-C9 inhibitor)--This test determines the ability of the late components of human complement (C3-C9) to lyse EAC 142 in the presence of appropriate dilutions of the test compound. An active inhibitor protects EAC 142 from lysis by human C3-C9; (iii) Test, Code 036 (C-Shunt inhibitor)--In this test human erythrocytes rendered fragile are lysed in autologous serum via the shunt pathway activated by cobra venom factor in the presence of appropriate dilutions of the test compound. Inhibition of the shunt pathway results in failure of lysis; (iv) Forssman Vasculitis Test--Here, the well known complement dependent lesion, Forssman vasculitis, is produced in guinea pigs by intradermal injection of rabbit anti-Forssman antiserum. The lesion is measured in terms of diameter, edema and hemorrhage and the extent to which a combined index of these is inhibited by prior intraperitoneal injection of the test compound at 200 mg/kg is then reported, unless otherwise stated; (v) Forssman Shock Test--Lethal shock is produced in guinea pigs by an i.v. injection of anti-Forssman antiserum and the harmonic mean death time of treated guinea pigs is compared with that of simultaneous controls; (vi) Complement Level Reduction Test--In this test, the above dosed guinea pigs, or others, are bled for serum and the complement level is determined in undiluted serum by the capillary tube method of U.S. Pat. No. 3,876,376 and compared to undosed control guinea pigs; and (vii) Cap 50 Test--Here, appropriate amounts of the test compound are added to a pool of guinea pig serum in vitro, after which the undiluted serum capillary tube assay referred to above is run. The concentration of compound inhibiting 50% is reported.
With reference to Table I, guinea pigs weighing about 300 g were dosed intravenously (i.v.) or intraperitoneally (i.p.) with 200 mg/kg of the test compound dissolved in saline and adjusted to pH 7-8. […] The serum was tested for whole complement using the capillary tube assay. Percent inhibition was calculated by comparison with simultaneous controls. The results appear in Table I together with results of tests, Code 026, 035, 036, Cap 50, percent inhibition and Forssman shock.

human C1 = target: T1, human C1 (Homo sapiens, UniProt P09871); assay: Test, Code 026 (C1 inhibitor): protection of fluid phase human C2 from activated human C1; type: biochemical; conditions: activity in wells, twofold serial dilution; higher well number indicates higher activity
T1 construct: substrate fluid phase human C2, in presence of C4
T1 sequence (P09871 16-688): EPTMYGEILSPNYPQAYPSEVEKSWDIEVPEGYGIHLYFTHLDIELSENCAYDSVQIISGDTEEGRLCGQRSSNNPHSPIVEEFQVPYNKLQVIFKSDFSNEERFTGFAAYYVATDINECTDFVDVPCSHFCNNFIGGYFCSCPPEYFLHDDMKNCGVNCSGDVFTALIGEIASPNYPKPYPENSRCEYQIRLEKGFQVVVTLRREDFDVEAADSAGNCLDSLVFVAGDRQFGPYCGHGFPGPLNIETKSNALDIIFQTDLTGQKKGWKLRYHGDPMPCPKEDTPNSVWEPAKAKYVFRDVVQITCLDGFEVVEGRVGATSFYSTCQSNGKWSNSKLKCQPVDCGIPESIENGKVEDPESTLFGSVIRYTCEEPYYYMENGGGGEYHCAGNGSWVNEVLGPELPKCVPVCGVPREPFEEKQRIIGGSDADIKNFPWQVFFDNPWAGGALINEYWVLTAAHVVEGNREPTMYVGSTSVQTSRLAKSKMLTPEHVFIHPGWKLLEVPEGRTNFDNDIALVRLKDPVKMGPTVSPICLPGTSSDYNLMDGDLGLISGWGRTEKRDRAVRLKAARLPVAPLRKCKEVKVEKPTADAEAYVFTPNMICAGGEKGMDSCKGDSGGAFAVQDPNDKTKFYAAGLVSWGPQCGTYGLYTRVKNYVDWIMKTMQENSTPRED
T1 sequence (P00736 18-705 partner): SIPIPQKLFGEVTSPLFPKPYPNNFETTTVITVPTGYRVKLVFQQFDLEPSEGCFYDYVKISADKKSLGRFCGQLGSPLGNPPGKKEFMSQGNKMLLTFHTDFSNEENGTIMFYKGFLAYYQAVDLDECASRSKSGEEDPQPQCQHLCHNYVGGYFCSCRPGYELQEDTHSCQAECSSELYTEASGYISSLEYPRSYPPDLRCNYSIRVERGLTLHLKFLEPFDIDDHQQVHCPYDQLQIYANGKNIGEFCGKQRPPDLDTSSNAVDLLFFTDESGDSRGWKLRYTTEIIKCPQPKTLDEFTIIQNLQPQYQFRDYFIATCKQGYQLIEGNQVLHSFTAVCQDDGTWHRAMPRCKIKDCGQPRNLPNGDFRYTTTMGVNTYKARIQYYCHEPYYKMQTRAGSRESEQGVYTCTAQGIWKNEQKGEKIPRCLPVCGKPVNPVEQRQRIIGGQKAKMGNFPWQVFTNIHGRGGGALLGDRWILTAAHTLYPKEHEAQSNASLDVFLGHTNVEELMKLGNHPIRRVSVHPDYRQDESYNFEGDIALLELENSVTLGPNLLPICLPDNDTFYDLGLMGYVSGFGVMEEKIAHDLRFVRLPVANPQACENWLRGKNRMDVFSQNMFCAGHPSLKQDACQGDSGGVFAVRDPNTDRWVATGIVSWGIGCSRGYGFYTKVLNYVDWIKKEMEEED
T1 sequence (P02745 23-245 partner): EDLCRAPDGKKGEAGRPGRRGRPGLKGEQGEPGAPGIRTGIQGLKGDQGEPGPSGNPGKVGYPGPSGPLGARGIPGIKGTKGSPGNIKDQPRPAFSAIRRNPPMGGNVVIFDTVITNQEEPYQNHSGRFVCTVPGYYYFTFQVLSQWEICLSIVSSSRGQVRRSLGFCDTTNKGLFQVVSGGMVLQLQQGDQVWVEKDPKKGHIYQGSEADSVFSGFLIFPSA
T1 sequence (P02746 28-253 partner): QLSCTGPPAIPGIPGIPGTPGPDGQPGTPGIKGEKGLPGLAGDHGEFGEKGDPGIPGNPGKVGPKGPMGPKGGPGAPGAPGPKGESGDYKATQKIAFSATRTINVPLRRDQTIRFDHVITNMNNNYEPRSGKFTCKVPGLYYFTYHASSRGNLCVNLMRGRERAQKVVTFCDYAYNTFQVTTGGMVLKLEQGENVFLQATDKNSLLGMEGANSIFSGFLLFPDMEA
T1 sequence (P02747 29-245 partner): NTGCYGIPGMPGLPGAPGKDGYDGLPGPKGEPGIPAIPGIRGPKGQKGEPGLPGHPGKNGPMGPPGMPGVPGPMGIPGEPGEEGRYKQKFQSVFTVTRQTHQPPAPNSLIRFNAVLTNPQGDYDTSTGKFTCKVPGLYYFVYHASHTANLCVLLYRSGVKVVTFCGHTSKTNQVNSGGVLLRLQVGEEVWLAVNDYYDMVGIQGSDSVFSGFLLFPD
Source text: as §1
(§2) **Activity in wells, a serial dilution assay. Higher well number indicate
(§3) higher activity. The serial dilutions are twofold.

shunt pathway = assay: Test, Code 036 (C-Shunt inhibitor): lysis of human erythrocytes in autologous serum via shunt pathway activated by cobra venom factor; type: cell-based; conditions: activity in wells, twofold serial dilution; higher well number indicates higher activity
Source text: as §1, §2, §3

[1] = test system: late components of human complement (C3-C9); assay: Test, Code 035 (C3-C9 inhibitor): lysis of EAC 142 by late components of human complement; type: cell-based; conditions: activity in wells, twofold serial dilution; higher well number indicates higher activity
Source text: as §1, §2, §3

[2] = 2 h, intraperitoneal, 200 mg/kg, 120 mins., read-out: In Vivo Activity (Guinea Pig) % Inhibition Intraperitoneal 120 mins.
[3] = 0.5 h, read-out: In Vivo Activity (Guinea Pig) % Inhibition Intraperitoneal 30 mins.
[4] = 1 h, read-out: In Vivo Activity (Guinea Pig) % Inhibition Intraperitoneal 60 mins.
[5] = 2 h, read-out: In Vivo Activity (Guinea Pig) % Inhibition Intraperitoneal 120 mins.
[6] = 0.5 h, intraperitoneal, 200 mg/kg, 30 mins., read-out: In Vivo Activity (Guinea Pig) % Inhibition Intraperitoneal 30 mins.
[7] = 1 h, intraperitoneal, 200 mg/kg, 60 mins., read-out: In Vivo Activity (Guinea Pig) % Inhibition Intraperitoneal 60 mins.

O=C(Nc1cc(C(=O)O)cc(C(=O)Nc2ccc(S(=O)(=O)O)c3cc(S(=O)(=O)O)cc(O)c23)c1)Nc1cc(C(=O)O)cc(C(=O)Nc2ccc(S(=O)(=O)O)c3cc(S(=O)(=O)O)cc(O)c23)c1 [3,3'-Ureylenebis{5-[(8-hydroxy-4,6-disulfo-1-naphthenyl)aminocarbonyl]-benzoic acid}tetrasodium salt]
change in vivo at 200 mg/kg (whole complement; [2]): -94%
C1 026* Wells (human C1): +4 Wells
Shunt Inhibition 036* Wells (shunt pathway): +2 Wells

O=C(Nc1ccc(C(=O)Nc2cc3ccccc3cc2C(=O)[O-])c(S(=O)(=O)[O-])c1)Nc1ccc(C(=O)Nc2cc3ccccc3cc2C(=O)[O-])c(S(=O)(=O)[O-])c1.[Na+].[Na+].[Na+].[Na+] [3,3'-{Ureylenebis[(2-sulfo-4,1-phenylene)carbonylimino]}di-2-naphthoic acid tetrasodium salt]
C1 026* Wells (human C1): N
Shunt Inhibition 036* Wells (shunt pathway): N
C-Late 035* Wells [1]: +3 Wells

O=C(Nc1ccc(C(=O)Nc2ccc(S(=O)(=O)[O-])c3cc(S(=O)(=O)[O-])cc(O)c23)c(S(=O)(=O)[O-])c1)Nc1ccc(C(=O)Nc2ccc(S(=O)(=O)[O-])c3cc(S(=O)(=O)[O-])cc(O)c23)c(S(=O)(=O)[O-])c1.[Na+].[Na+].[Na+].[Na+].[Na+].[Na+] [4,4'-Ureylenebis[(2-sulfo-4,1-phenylenecarbonyl)imino]bis[5-hydroxy-1,7-naphthalenedisulfonic acid] hexasodium salt]
change in vivo at 200 mg/kg (whole complement; [3]): 1%
change in vivo at 200 mg/kg (whole complement; [4]): -3%
change in vivo at 200 mg/kg (whole complement; [5]): -24%
C1 026* Wells (human C1): +7 Wells
Shunt Inhibition 036* Wells (shunt pathway): +5 Wells
C-Late 035* Wells [1]: N

O=C(Nc1ccc(C(=O)Nc2ccc(S(=O)(=O)[O-])c3cccc(S(=O)(=O)O)c23)c(S(=O)(=O)[O-])c1)Nc1ccc(C(=O)Nc2ccc(S(=O)(=O)O)c3cccc(S(=O)(=O)O)c23)c(S(=O)(=O)[O-])c1.[Na+].[Na+].[Na+] [4,4'-{Ureylenebis[(2-sulfo-4,1-phenylenecarbonyl)imino]}-di-1,5-naphthalenedisulfonic acid trisodium salt]
change in vivo at 200 mg/kg (whole complement; [3]): -10%
change in vivo at 200 mg/kg (whole complement; [4]): 6%
change in vivo at 200 mg/kg (whole complement; [5]): -6%
C1 026* Wells (human C1): +7 Wells
Shunt Inhibition 036* Wells (shunt pathway): +1 Wells
C-Late 035* Wells [1]: N

O=C(Nc1ccc(C(=O)Nc2ccc(S(=O)(=O)[O-])c3ccc(S(=O)(=O)[O-])cc23)c(S(=O)(=O)[O-])c1)Nc1ccc(C(=O)Nc2ccc(S(=O)(=O)[O-])c3ccc(S(=O)(=O)[O-])cc23)c(S(=O)(=O)[O-])c1.[Na+].[Na+].[Na+].[Na+].[Na+].[Na+] [4,4'-{Ureylenebis[(2-sulfo-4,1-phenylenecarbonyl)imino]}-di-1,6-naphthalenedisulfonic acid hexasodium salt]
change in vivo at 200 mg/kg (whole complement; [3]): -3%
change in vivo at 200 mg/kg (whole complement; [4]): -4%
change in vivo at 200 mg/kg (whole complement; [5]): 6%
C1 026* Wells (human C1): +5 Wells
Shunt Inhibition 036* Wells (shunt pathway): N
C-Late 035* Wells [1]: N

O=C(Nc1ccc(C(=O)Nc2cc(S(=O)(=O)[O-])cc3ccc(S(=O)(=O)[O-])cc23)c(S(=O)(=O)[O-])c1)Nc1ccc(C(=O)Nc2cc(S(=O)(=O)[O-])cc3ccc(S(=O)(=O)[O-])cc23)c(S(=O)(=O)[O-])c1.[Na+].[Na+].[Na+].[Na+].[Na+].[Na+] [4,4'-{Ureylenebis[(2-sulfo-4,1-phenylenecarbonyl)imino]}-di-2,6-naphthalenedisulfonic acid hexasodium salt]
change in vivo at 200 mg/kg (whole complement; [3]): -3%
change in vivo at 200 mg/kg (whole complement; [4]): -4%
change in vivo at 200 mg/kg (whole complement; [5]): -11%
C1 026* Wells (human C1): +5 Wells
Shunt Inhibition 036* Wells (shunt pathway): N
C-Late 035* Wells [1]: N

O=C(Nc1cc(C(=O)O)cc(C(=O)Nc2cc(S(=O)(=O)O)cc3cc(S(=O)(=O)O)cc(S(=O)(=O)O)c23)c1)Nc1cc(C(=O)O)cc(C(=O)Nc2cc(S(=O)(=O)O)cc3cc(S(=O)(=O)O)cc(S(=O)(=O)O)c23)c1 [5,5'-Ureylenebis[N-(3,6,8-trisulfo-1-naphthyl)]isophthalamic acid octasodium salt]
change in vivo at 200 mg/kg (whole complement; [6]): -37%
change in vivo at 200 mg/kg (whole complement; [7]): -42%
change in vivo at 200 mg/kg (whole complement; [2]): -48%
In Vivo Activity (Guinea Pig) % Inhibition Intravenous 2 mins. (whole complement; 200 mg/kg): -92%
In Vivo Activity (Guinea Pig) % Inhibition Intravenous 30 mins. (whole complement; 200 mg/kg, 30 mins.): -44%
In Vivo Activity (Guinea Pig) % Inhibition Intravenous 120 mins. (whole complement; 200 mg/kg, 120 mins.): -39%
C1 026* Wells (human C1): +10 Wells
Shunt Inhibition 036* Wells (shunt pathway): +2 Wells
C-Late 035* Wells [1]: N

COC(=O)c1cc(NC(=O)Nc2cc(C(=O)Nc3ccc(S(=O)(=O)O)c4cc(S(=O)(=O)O)cc(S(=O)(=O)O)c34)cc(C(=O)OC)c2)cc(C(=O)Nc2ccc(S(=O)(=O)O)c3cc(S(=O)(=O)O)cc(S(=O)(=O)O)c23)c1 [5,5'-Ureylenebis[N-(4,6,8-trisulfo-1-naphthyl)isophthalamic acid]dimethyl ester hexasodium salt]
change in vivo at 200 mg/kg (whole complement; [6]): -14%
change in vivo at 200 mg/kg (whole complement; [7]): -17%
change in vivo at 200 mg/kg (whole complement; [2]): -25%
C1 026* Wells (human C1): +4 Wells
Shunt Inhibition 036* Wells (shunt pathway): +1 Wells
C-Late 035* Wells [1]: +1 Wells

O=C(Nc1cc(C(=O)O)cc(C(=O)Nc2ccc(S(=O)(=O)O)c3cc(S(=O)(=O)O)cc(S(=O)(=O)O)c23)c1)Nc1cc(C(=O)O)cc(C(=O)Nc2ccc(S(=O)(=O)O)c3cc(S(=O)(=O)O)cc(S(=O)(=O)O)c23)c1 [5,5'-Ureylenebis[N-(4,6,8-trisulfo-1-naphthyl)isophthalamic acid]octasodiumsalt]
change in vivo at 200 mg/kg (whole complement; [6]): -40%
change in vivo at 200 mg/kg (whole complement; [7]): -49%
change in vivo at 200 mg/kg (whole complement; [2]): -71%
C1 026* Wells (human C1): +5 Wells
Shunt Inhibition 036* Wells (shunt pathway): +2 Wells
C-Late 035* Wells [1]: +1 Wells

O=C(Nc1ccc(S(=O)(=O)[O-])c(C(=O)Nc2cc(S(=O)(=O)[O-])cc3cc(S(=O)(=O)[O-])cc(S(=O)(=O)[O-])c23)c1)Nc1ccc(S(=O)(=O)[O-])c(C(=O)Nc2cc(S(=O)(=O)[O-])cc3cc(S(=O)(=O)[O-])cc(S(=O)(=O)[O-])c23)c1.[Na+].[Na+].[Na+].[Na+].[Na+].[Na+].[Na+].[Na+] [8,8'-[Carbonylbis[imino[(-6-sulfo-3,1-phenylene)]carbonylimino]]-bis-1,3,6-naphthalenetrisulfonic acid octasodium salt]
change in vivo at 200 mg/kg (whole complement; [3]): -23%
change in vivo at 200 mg/kg (whole complement; [4]): -58%
change in vivo at 200 mg/kg (whole complement; [5]): -71%
C1 026* Wells (human C1): +7 Wells
Shunt Inhibition 036* Wells (shunt pathway): +1 Wells

O=C(Nc1ccc(C(=O)Nc2ccc(S(=O)(=O)[O-])c3cc(S(=O)(=O)[O-])cc(S(=O)(=O)[O-])c23)c(S(=O)(=O)[O-])c1)Nc1ccc(C(=O)Nc2ccc(S(=O)(=O)[O-])c3cc(S(=O)(=O)[O-])cc(S(=O)(=O)[O-])c23)c(S(=O)(=O)[O-])c1.[Na+].[Na+].[Na+].[Na+].[Na+].[Na+].[Na+].[Na+] [8,8'-{Ureylenebis[(2-sulfo-4,1-phenylenecarbonyl)imino]}di-1,3,5-naphthalenetrisulfonic acid octasodium salt]
change in vivo at 200 mg/kg (whole complement; [3]): -32%
change in vivo at 200 mg/kg (whole complement; [4]): -31%
change in vivo at 200 mg/kg (whole complement; [5]): -51%
In Vivo Activity (Guinea Pig) % Inhibition Intravenous 2 mins. (whole complement; 200 mg/kg): -89%
In Vivo Activity (Guinea Pig) % Inhibition Intravenous 30 mins. (whole complement; 200 mg/kg, 30 mins.): -45%
In Vivo Activity (Guinea Pig) % Inhibition Intravenous 120 mins. (whole complement; 200 mg/kg, 120 mins.): -29%
C-Late 035* Wells [1]: +1 Wells

Source: patent publication US4229584A, “Ureylenebis(anionic substituted phenylene carbonyl)imino naphthalene sulfonic acids and naphthalene carboxylic acids and their salts” (American Cyanamid Company, priority 1978, dated 1980)
